In US10987349B2, “Antitumor agent and bromodomain inhibitor” (FUJIFILM Corporation, priority 2016, dated 2021) one finds IC50, inhibition and GI50 data, which are given here for three compounds.

One test concerns the target T1, BRD4 BD2 (Homo sapiens, UniProt O60885).
T1 construct: BRD2 BD2, BRD3 BD2 and BRD4 BD2 (Cisbio); purchased Cisbio
Put plainly: Binding assay, BRD4 BD2 to acetylated histone H4 Peptide-Biotin (EPIgeneous Binding Domain Kit B). To be noted: for inhibition at 0.3 µM: test compound at 300 nmol/L, read-out: Binding inhibition percentage BRD4 BD2. A digest of the protocol:
(§1)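 HTRF binding of GST-tagged BD2 (20 nmol/L working stock) to biotinylated acetyl-histone H4 peptide (250 nmol/L working stock), using streptavidin-XL665 and anti-GST Eu cryptate. Incubated 20 h at room temperature; 665/620 nm ratio versus DMSO gives % inhibition; IC50 by four-parameter fit, or % inhibition at 300 nmol/L.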

The target in the next test is T2, BRD3 BD1 (Homo sapiens, UniProt Q15059).
T2 construct: BRD2 BD1, BRD3 BD1 and BRD4 BD1 (Cisbio); purchased Cisbio
The test can be described thus: Binding assay, BRD3 BD1 to acetylated histone H4 Peptide-Biotin (EPIgeneous Binding Domain Kit A). To be noted: for inhibition at 0.3 µM: test compound at 300 nmol/L, read-out: Binding inhibition percentage BRD3 BD1. A digest of the protocol: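 HTRF competition: bromodomain protein (added at 20 nmol/L) and biotinylated tetra-acetyl H4(1-25) peptide (added at 25 nmol/L) were incubated with compound, streptavidin-d2 and anti-GST Eu cryptate for 20 h at room temperature. Inhibition came from the 665/620 nm ratio relative to DMSO; IC50 by four-parameter fit; some compounds were tested only at 300 nmol/L final.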

In test [1] the test system is human lung adenocarcinoma cell line A549. The test can be described thus: Cell growth test (Cell Titer Glo) A549. The class given is cell-based. To be noted: 3 to 5 days. The source says: (§2) The human undifferentiated thymoma cell line Ty-82 (JCRB), the human acute myeloid leukemia cell lines MV4-11 (ATCC), MOLM-13 (ATCC) and RS4-11 (ATCC), the human lymphoma cell line Raji (JCRB), the human cervical epidermoid carcinoma cell line Hela (JCRB), the human lung adenocarcinoma cell line A549 (ATCC), the human colon cancer cell lines DLD1 (DS Pharma) and HCT116 (DS Pharma), and the human pancreatic cancer cell line MIAPACA-2 (ATCC) were used to carry out a cell growth test.
(§3) Ty-82, MV4-11, MOLM-13, RS4-11, Raji and DLD1 were each seeded in a well plate, in which Roswell Park Memorial Institute (RPMI)-1640 medium supplemented with penicillin/streptomycin and fetal bovine serum (FBS) with a final concentration of 10% was placed. Hela was seeded in Dulbecco's Modified Eagle's medium (DMEM) supplemented with penicillin/streptomycin and FBS with a final concentration of 10%. A549 and MIAPACA-2 were each seeded in a well plate, in which Minimum Essential Medium (MEM) supplemented with penicillin/streptomycin and FBS with a final concentration of 10% was placed. […]
(§4) Thereafter, a medium containing a test compound serially diluted with DMSO, or DMSO, was added to each well of the plate, in which the cells had been seeded, and the obtained mixture was then cultured under conditions of 37° C. and 5% CO2 for 3 to 5 days. Cell Titer Glo reaction solution (Promega) was added to the culture, and the amount of luminescence was then measured using Envision plate reader (PerkinElmer). Since the amount of luminescence is in proportion to the concentration of adenosine triphosphate (ATP) in cells, the amount of luminescence was used as an indicator of the number of living cells. The growth inhibition percentage of the test compound in each concentration was calculated according to the following equation. Growth inhibition percentage (%)=(amount of luminescence in test compound−added well)/(amount of luminescence in DMSO−added well)×100 […]

Test [2] relates to human undifferentiated thymoma cell line Ty-82. The test can be described thus: Cell growth test (Cell Titer Glo) Ty-82. The class given is cell-based. To be noted: TY82, 3 to 5 days.
From the text: as §2
Ty-82, MV4-11, MOLM-13, RS4-11, Raji and DLD1 were each seeded in a well plate, in which Roswell Park Memorial Institute (RPMI)-1640 medium supplemented with penicillin/streptomycin and fetal bovine serum (FBS) with a final concentration of 10% was placed. Hela was seeded in Dulbecco's Modified Eagle's medium (DMEM) supplemented with penicillin/streptomycin and FBS with a final concentration of 10%. A549 and MIAPACA-2 were each seeded in a well plate, in which Minimum Essential Medium (MEM) supplemented with penicillin/streptomycin and FBS with a final concentration of 10% was placed. HCT116 was seeded in a well plate, in which McCoy's 5A medium supplemented with penicillin/streptomycin and FBS with a final concentration of 10% was placed.
Thereafter, a medium containing a test compound serially diluted with DMSO, or DMSO, was added to each well of the plate, in which the cells had been seeded, and the obtained mixture was then cultured under conditions of 37° C. and 5% CO2 for 3 to 5 days. Cell Titer Glo reaction solution (Promega) was added to the culture, and the amount of luminescence was then measured using Envision plate reader (PerkinElmer). Since the amount of luminescence is in proportion to the concentration of adenosine triphosphate (ATP) in cells, the amount of luminescence was used as an indicator of the number of living cells. The growth inhibition percentage of the test compound in each concentration was calculated according to the following equation. Growth inhibition percentage (%)=(amount of luminescence in test compound−added well)/(amount of luminescence in DMSO−added well)×100
The growth inhibition percentage of the test compound in each concentration was plotted by performing a non-linear regression analysis [(log (inhibitor) vs. response—Variable slope (four parameters)], using Graphpad prism 5, and a 50% growth inhibitory concentration [GI50 (nmol/L)] was then calculated.
Background: In ATP-based viability assays light output follows the ATP content of the culture.

The target of another test is T3, BRD3 BD2 (Homo sapiens, UniProt Q15059).
T3 construct: BRD2 BD2, BRD3 BD2 and BRD4 BD2 (Cisbio); purchased Cisbio
Put plainly: Binding assay, BRD3 BD2 to acetylated histone H4 Peptide-Biotin (EPIgeneous Binding Domain Kit B). To be noted: for inhibition at 0.3 µM: test compound at 300 nmol/L, read-out: Binding inhibition percentage BRD3 BD2. Put shortly:
as §1

Test [3] relates to human colon cancer cell line HCT116. The test can be described thus: Cell growth test (Cell Titer Glo) HCT116. The class given is cell-based. As to conditions: HCT-116, 3 to 5 days.
From the text: as §2, §3, §4

Test [4] concerns human pancreatic cancer cell line MIAPACA-2. Put plainly: Cell growth test (Cell Titer Glo) MIAPACA-2. The class given is cell-based. As to conditions: MIA PaCa-2, MIAPACA-2, Pancreatic cancer, 3 to 5 days.
From the text: as §2, §3, §4

T3 sequence (Q15059 306-415 limits assumed): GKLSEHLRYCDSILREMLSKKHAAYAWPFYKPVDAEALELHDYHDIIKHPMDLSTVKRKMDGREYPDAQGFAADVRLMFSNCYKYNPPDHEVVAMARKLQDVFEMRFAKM
T2 sequence (Q15059 34-140 limits assumed): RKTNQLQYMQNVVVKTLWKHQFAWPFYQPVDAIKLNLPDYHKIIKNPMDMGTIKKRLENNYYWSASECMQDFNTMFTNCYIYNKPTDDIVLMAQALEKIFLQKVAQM

As for `CCn1c(=O)cc(C2CCN(C)CC2)c2cc(C(=O)N(C)c3ccc(C)cc3)ccc21` [Example 14, 1-Ethyl-N-methyl-N-(4-methylphenyl)-4-(1-methylpiperidin-4-yl)-2-oxo-1,2-dihydroquinoline-6-carboxamide], the IC50 on BRD4 BD2 was 27 nM; at BRD3 BD1 it was 4 nM; on BRD3 BD2, 70 nM. In addition, the results for the inhibition at 0.3 µM at BRD4 BD2, at BRD3 BD1 and at BRD3 BD2 were 82%, 94% and 83%, respectively. The 50% growth inhibitory concentration (GI50) in test [1] worked out at 665 nM; in test [2], 12 nM; in test [3], 241 nM; in test [4] it was 1420 nM.
Take `CCn1c(=O)cc(N2CCOCC2)c2cc(-n3c(-c4ccc(Cl)cc4)c[nH]c3=O)ccc21` [Example 245, 6-(5-(4-chlorophenyl)-2-oxo-2,3-dihydro-1H-imidazol-1-yl)-1-ethyl-4-(morpholin-4-yl)quinolin-2(1H)-one]: the figures for the IC50 on BRD4 BD2, at BRD3 BD1 and on BRD3 BD2 were 3 nM, 37 nM and 4 nM, respectively. Further, the inhibition at 0.3 µM is 88% at BRD4 BD2, 90% at BRD3 BD1 and 92% on BRD3 BD2. The GI50 in test [1] was found to be 1740 nM; in test [2] it was 10 nM; in test [3], 628 nM; in test [4], 760 nM.
Take `CCn1c(=O)cc(C2CCN(C)CC2)c2cc(C(=O)N(C)c3ccc4c(c3)CCC4)ccc21` [Example 17, N-(2,3-dihydro-1H-inden-5-yl)-1-ethyl-N-methyl-4-(1-methylpiperidin-4-yl)-2-oxo-1,2-dihydroquinoline-6-carboxamide]: the IC50 at BRD4 BD2 turned out to be 10 nM; on BRD3 BD1, 3 nM; at BRD3 BD2, 14 nM. The inhibition at 0.3 µM on BRD4 BD2 came to 88%; at BRD3 BD1, 94%; at BRD3 BD2, 91%. Besides, the 50% growth inhibitory concentration (GI50) in test [1] was determined as 292 nM; in test [2] it was 6 nM; in test [3], 116 nM; in test [4] it was 307 nM.

What is called IC50 is the concentration needed to halve the response being measured. By inhibition is commonly meant the drop in the measured response relative to a control, in per cent. Usually GI50 stands for the concentration at which growth is held to half of that of the control.
